Key:
human Mnk2 protein = human Mnk2 protein (Homo sapiens, UniProt Q9HBH9); conditions: described in WO 02/103361; cited from earlier work
BS125 cells = experiment: MTT-based cell proliferation assay, BS125 cells; design: species or system human; conditions: 10 μM CGP57380 with increasing amounts of rapamycin, 5 days after treatment
Experimental: (§1) Cell proliferation was assayed using MTT-based method 5 days after treatment. Growth in untreated cells was used as a reference. Data shown are the mean±SD values of at least three separate experiments.
(§2) Human brain tumor cell lines; BS125 and LN319 were derived from human patients. The “BS” series were generated at the University of Basel, Switzerland while the “LN” series was generated in Lausanne, Switzerland (Ishii et al., […], Brain Pathol. 9:469-79). These cells were cultured in DMEM supplemented with 10% FCS and standard antibiotics in an incubator at 37° C. and 5% CO2 humidified atmosphere. Transfection was accomplished using Lipofectamine (Invitrogen) according to the supplier's instructions. For overexpression experiments, previously reported MNK1-Flag construct (Knauf et al., 2001, Mol Cell Biol. 21:5500-11) were used. […]
(§3) For cell proliferation MTT-based assays in 96-well plates, about ˜5000 cells were seeded 1 day before drug treatment. […] The number of viable cells was measured using CellTiter 96® AQueous Non-Radioactive Cell Proliferation Assay (Promega) used according to manufacturer's instruction. In addition, cell growth was also monitored by counting cell number with a Vi-Cell XR cell viability analyzer (Beckman Coulter). […] Cells were counted every day over a 5-day period.

LN319 cells = experiment: MTT-based cell proliferation assay, LN319 cells; design: species or system human; conditions: 10 μM CGP57380 with increasing amounts of rapamycin, 5 days after treatment
Experimental: as §1, §2, §3

phosphorylated eIF4E = conditions: cells transfected with Mnk2 (Mnk2a or Mnk2b) or Mnk1; cited from earlier work

Sequence of human Mnk2 protein (Q9HBH9 whole entry): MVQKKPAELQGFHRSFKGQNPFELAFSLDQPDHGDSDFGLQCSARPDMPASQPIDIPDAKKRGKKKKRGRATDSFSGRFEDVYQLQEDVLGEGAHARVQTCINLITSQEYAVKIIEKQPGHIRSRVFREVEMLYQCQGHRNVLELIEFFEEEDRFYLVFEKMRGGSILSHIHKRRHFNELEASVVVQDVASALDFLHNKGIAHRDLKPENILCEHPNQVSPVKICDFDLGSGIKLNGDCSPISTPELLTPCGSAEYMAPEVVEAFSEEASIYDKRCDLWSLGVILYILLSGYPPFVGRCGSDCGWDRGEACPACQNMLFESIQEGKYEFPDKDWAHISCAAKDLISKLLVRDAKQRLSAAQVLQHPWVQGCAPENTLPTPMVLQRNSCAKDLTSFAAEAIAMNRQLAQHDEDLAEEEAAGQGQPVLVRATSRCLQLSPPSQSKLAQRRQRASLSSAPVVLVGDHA

Row | Compound | binding to human Mnk2 protein (human Mnk2 protein) | inhibitory effect on cell proliferation (BS125 cells) | inhibitory effect on cell proliferation (LN319 cells) | reduction of phosphorylated eIF4E (phosphorylated eIF4E)
1 | COC(=O)c1ccc(O)cc1 [4-hydroxybenzoic acid methyl ester] | binds the human Mnk2 protein |  |  | 
2 | Nc1ncnc2n[nH]c(Nc3ccc(F)cc3)c12 [CGP57380] |  | significantly increases the inhibitory effect on cell proliferation | significantly increases the inhibitory effect on cell proliferation | strong reduction of phosphorylated eIF4E
